This is an account of results in US12304909B2, “Compounds and their use in therapy” (IMPERIAL COLLEGE INNOVATIONS LIMITED, priority 2018, dated 2025).

Molecules are shown by their SMILES.

For this series, the system named is MDA MB 231 cells. As to the kind of experiment: In vivo study in mice, MDA MB 231 tumour growth. The following applies: 25 mg/kg twice a day by oral gavage, 10 days. Further details: species or system Athymic Nude female mice. On the procedure:
The effect of Example 1 on tumor growth rate in mice was also investigated.
5×10^6 MDA MB 231 cells (obtained from Professor Eric Aboagye, Hammersmith Hospital; cell type: triple negative breast cancer) were resuspended in PBS, and 50 μl of cells/PBS was mixed with 50 μl of Matrigel to provide a total volume of 100 μL containing 50% Matrigel. The suspension was injected into the right flank in 16 Athymic Nude female mice. Mice were five to six weeks old and obtained from Charles Rivers Laboratories. All of the experiments were carried out under London Home Office license authority and London Home Office Ethics Committee guidelines. When the tumour mass reached 50 mm3, the animals were randomized (8 per group) and treated for 10 days with PBS solution (control group) or 25 mg/kg of Example 1 suspended in PBS twice a day by oral gavage. Tumor growth rates were analyzed by caliper measurements every day after the start of the treatment period with Example 1 (“NMTi”) or the control (“PBS”). Tumor volume was calculated according to the formula: […]. Weight of the mice was also measured every day after the start of the treatment period with Example 1 (“NMTi”) or the control (“PBS”). Mice were euthanised when the tumor size exceeded 15 mm in diameter in any direction.

As to `Cc1c(CCOc2cc(Cl)ccc2-c2ccc3ncc(CCN)n3c2)c(C(=O)N(C)C)nn1C` [Example Compound 1, 4-(2-{2-[3-(2-aminoethyl)imidazo[1,2-a]pyridin-6-yl]-5-chlorophenoxy}ethyl)-N,N,1,5-tetramethyl-1H-pyrazole-3-carboxamide], the “weight change in the mice” value is “No weight change”. The tumour growth rate entry (vs PBS control) is listed as “reduced”.
